Data from PubChem BioAssay AID389 (SGCOxCompounds, 2006).

The compounds below were run against Serine/threonine-protein kinase PAK 4 (Homo sapiens) (UniProt O96013) (assay: compound-induced PAK4 thermal stabilization – biophysical, human, DSF, SYPRO orange (AID 389)). Details: recombinant PAK4 DSF thermal shift, at 10 µM, protein 2 µM, buffer 10 mM HEPES, pH 7.5, NaCl 150 mM, hits give high values.
Chain of Serine/threonine-protein kinase PAK 4 (Homo sapiens) (O96013 whole entry, looked up): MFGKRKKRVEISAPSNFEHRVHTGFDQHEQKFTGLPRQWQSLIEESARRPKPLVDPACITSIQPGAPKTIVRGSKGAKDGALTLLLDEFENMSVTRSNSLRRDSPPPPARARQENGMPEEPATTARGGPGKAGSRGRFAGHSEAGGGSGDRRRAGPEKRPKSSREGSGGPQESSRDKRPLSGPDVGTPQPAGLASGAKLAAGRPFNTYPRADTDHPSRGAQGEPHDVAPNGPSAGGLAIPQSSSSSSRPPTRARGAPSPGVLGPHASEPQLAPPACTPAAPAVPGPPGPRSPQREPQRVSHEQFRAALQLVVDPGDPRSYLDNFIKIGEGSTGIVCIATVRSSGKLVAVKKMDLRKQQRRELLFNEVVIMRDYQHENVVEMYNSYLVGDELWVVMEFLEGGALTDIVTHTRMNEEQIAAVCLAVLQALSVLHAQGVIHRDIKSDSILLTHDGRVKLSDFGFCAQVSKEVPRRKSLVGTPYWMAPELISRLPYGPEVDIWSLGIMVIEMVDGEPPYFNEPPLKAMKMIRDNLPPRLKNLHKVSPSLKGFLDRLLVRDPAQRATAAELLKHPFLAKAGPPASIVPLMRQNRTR
`O=c1[nH]c(O)c2c1c1c3ccccc3nc1n1cncc21` was tested, and the Tm shift was 3.8 Celsius. Compound `CCN(CC)CCNC(=O)c1c(C)[nH]c(/C=C2\C(=O)Nc3ccc(Cl)cc32)c1C` has a Tm shift of 6.4 Celsius. Compound `NCCNc1ncc(C(N)=O)c(Nc2cccc(C(F)(F)F)c2)n1` has a Tm shift of 5.9 Celsius. Compound `NCCCn1cc(C2=C(c3c[nH]c4ccccc34)C(=O)NC2=O)c2ccccc21` has a Tm shift of 4.27 Celsius. Compound `N#CCCc1ccc2c(c1)-c1[nH]c3ccc(-n4oo4)cc3c1CC(=O)N2` has a Tm shift of 3.68 Celsius. Compound `CC(O)(O)C1(O)C[C@@H]2O[C@@]1(C)n1c3ccccc3c3c4c(c5c6ccccc6n2c5c31)C(=O)NC4` (stereo partly drawn) has a Tm shift of 3.9 Celsius. In the case of `NC(=O)Nc1sc(-c2ccccc2)cc1C(N)=O`, the Tm shift is reported as 4.28 Celsius. In the case of `CC(C)n1cnc2c(Nc3cccc(Cl)c3)nc(NCCO)nc21`, the Tm shift is reported as 3.7 Celsius. `O=Nc1c(-c2c(O)[nH]c3ccc(I)cc23)[nH]c2ccccc12` showed a Tm shift of 3.73 Celsius. Work on `CC(C)C(CO)Nc1nc(Nc2cccc(Cl)c2)c2ncn(C(C)C)c2n1` (stereo not drawn) yielded a Tm shift of 4.7 Celsius. In the case of `CCn1cnc2c(Nc3cccc(Cl)c3)nc(N[C@@H]3CCCC[C@@H]3N)nc21`, the Tm shift is reported as 6.44 Celsius. `N=C(N)SCCCn1cc(C2=C(c3c[nH]c4ccccc34)C(=O)NC2=O)c2ccccc21` gave a Tm shift of 3.43 Celsius. With `OCC(O)CCO/N=C1/C(c2c(O)[nH]c3ccccc23)=Nc2ccccc21` (stereo not drawn) the Tm shift was 4.7 Celsius. In the case of `O=C1NCc2c1c1c3ccccc3[nH]c1c1[nH]c3ccccc3c21`, the Tm shift is reported as 3.8 Celsius. `Nc1nc(Nc2ccc(S(N)(=O)=O)cc2)nn1C(=S)Nc1c(F)cccc1F` showed a Tm shift of 6.03 Celsius. In the case of `COc1cc(/C=C/C(=O)CC(=O)/C=C/c2ccc(O)c(OC)c2)ccc1O`, the Tm shift is reported as 3.34 Celsius. `O=C1Cc2c([nH]c3ccc(Br)cc23)-c2ccccc2N1` gave a Tm shift of 4.62 Celsius. `Cc1cc(Nc2nc(-c3ccccc3)nc3ccccc23)n[nH]1` gave a Tm shift of 5.9 Celsius. `NS(=O)(=O)c1ccc(Nc2nc(OCC3CCCCC3)c3[nH]cnc3n2)cc1` gave a Tm shift of 3.8 Celsius. Compound `O=C(c1ccc(Nc2nccc(-c3cc4ccccc4s3)n2)cc1)N1CCC(N2CCCC2)CC1` has a Tm shift of 3.23 Celsius. Work on `Clc1ccc(-c2cnc3ccc(NC4CCOCC4)nn23)cc1` yielded a Tm shift of 3.1 Celsius. `Cn1cc(/C=C2\C(=O)Nc3ccc(S(N)(=O)=O)cc32)c2ccccc21` was tested, and the Tm shift was 3.69 Celsius. `O=C1NC(=O)c2c1c1c3ccccc3n3c1c1c2c2ccccc2n1[C@@H]1CCC3O1` gave a Tm shift of 4.92 Celsius.
